Tests used:
Fibroblasts [1] = experiment: BioMAP HDFT system (TGF-β), scoring of readout parameters; format: cell-based, human; set-up: key to PAI-1 score: 1 = modulated in desired direction, 0 = not (no penalties applied); settings: HDFT; desired change decrease
Source text: (§1) Each screened compound is scored according to its modulation of the selected readout parameters. Compounds receive a positive score (score of 1) or negative score (score of 0) for each readout parameter set forth in Table 2 that is modulated in the desired direction. […] Parameters may be penalized by making the positive score a −1 for parameters where regulation is opposite to the desired direction.
(§2) Compounds were first selected to inhibit PAI-1 in the HDFT as an indication of TBF-b signaling inhibition without being cytotoxic. […] Blank spots in Table 3 were where parameter was not assayed. Penalties were not applied for this scoring.
(§3) Cell culture. Human umbilical vein endothelial cells (HUVEC) were pooled from multiple donors, cultured according to standard methods, and plated into microtiter plates at passage 4. Cell culture medium for all systems containing HUVEC included hydrocortisone. Coronary artery smooth muscle cells (CASM3C) and umbilical artery smooth muscle cells (HSM3C) were cultured according to standard procedures. Peripheral blood mononuclear cells (PBMC) were prepared from buffy coats from normal human donors according to standard methods. Monocyte-derived macrophages were differentiated in the presence of M-CSF for 7 d according to standard procedures. Human dermal fibroblasts were pooled from 3 donors, cultured according to standard methods, and plated confluent 24 h before stimulation. Cell culture medium for all systems containing fibroblasts and keratinocytes contained low hydrocortisone. Epidermal keratinocytes and bronchial epithelial cells from 3 donors were cultured according to standard procedures and pooled when plated into microtiter plates. For keratinocyte-fibroblast co-cultures, cells were plated simultaneously 24 h before stimulation. For bronchial epithelial cell-fibroblast co-cultures, fibroblasts were plated and cultured 48 before addition of epithelial cells, then cultured another 24 hr before stimulation. Concentrations/amounts of agents added to confluent microtiter plates to build each system: cytokines (IL-1β, 1 ng/ml; TNF-α, 5 ng/ml; IFN-γ, 20 ng/ml; IL-4, 5 ng/ml), activators (SAg, 20 ng/ml; histamine, 10 μM; zymosan, 10 μg/ml; or LPS, 2 ng/ml), growth factors (TGF-β, 5 ng/ml; EGF, bFGF, and PDGF-BB, 10 ng/ml), and PBMC (7.5×10^4 cells/well) or macrophages (3.5×10^4 cells/well).
(§4) Compounds. Compounds were prepared in the solvent directed, added 1 hr before stimulation of the cells, and were present during the 24 hr stimulation period for the measurement of parameters listed in Table 2. For proliferation, compounds added 1 hr before stimulation of the cells with cytokines, and were present during the 48 to 72 hr assay. If prepared in DMSO, the final concentration of solvent was 0.1% or less.
(§5) Readout Parameter Measurements. The levels of readout parameters were measured by ELISA. Briefly, microtiter plates are treated, blocked, and then incubated with primary antibodies or isotype control antibodies (0.01-0.5 microg/ml) for 1 hr. After washing, plates were incubated with a peroxidase-conjugated anti-mouse IgG secondary antibody or a biotin-conjugated anti-mouse IgG antibody for 1 hr followed by streptavidin-HRP for 30 min. Plates were washed and developed with TMB substrate and the absorbance (OD) was read at 450 nm (subtracting the background absorbance at 650 nm). Quantitation of TNF-alpha or PGE2 in the LPS system was done using a commercially available kit according to the manufacturer's directions. Proliferation of endothelial cells (HUVEC and CAEC), smooth muscle cells (SMC and CASMC), and PBMC (T cells) was quantitated by Alamar Blue reduction or SRB.
(§6) Data analysis. Mean OD values for each parameter were calculated for compounds run in duplicate. The mean value (or single well OD value) for each parameter in a treated sample was then divided by the mean value from an appropriate control to generate a ratio.

[2] = tested on: Umbilical Vein Endothelial Cells; experiment: BioMAP 3C system (IL-1β + TNF-α + IFN-γ), scoring of readout parameters; format: cell-based, human; settings: for HLA-DR score: desired change decrease; for uPAR score: desired change increase
Source text: as §1, §3, §4, §5
as §6, with “ratio. All ratios were then log10 transformed. 95% significance prediction envelopes (grey shading in Figures) were calculated for historical controls.” for “ratio.”

[3] = tested on: Bronchial epithelial cells; experiment: BioMAP BE4T system (IL-4 + TNF-a), scoring of readout parameters; format: cell-based, human; set-up: key: 1 = modulated in desired direction, 0 = not (−1 = opposite); settings: for PAI-1 score: desired change decrease; for EGFR score: desired no change or increase
Description: In the “BE4T” system, bronchial epithelial cells, usually primary human bronchial epithelial cells, are cultured in the presence of TNF-α and IL-4.
as §1, §3, §4, §5
as §6, with “ratio. All ratios were then log10 transformed. 95% significance prediction envelopes (grey shading in Figures) were calculated for historical controls.” for “ratio.”

[4] = tested on: Bronchial epithelial cells; experiment: BioMAP BE3C system (IL-1β + TNF-α + IFN-γ), scoring of readout parameters; format: cell-based, human; settings: for PAI-1 score: desired change decrease; for EGFR score: desired no change or increase
Source text: as §1, §3, §4, §5
as §6, with “ratio. All ratios were then log10 transformed. 95% significance prediction envelopes (grey shading in Figures) were calculated for historical controls.” for “ratio.”

human primary cells = experiment: Total score for desired parameter modulation over the BioMAP systems of Table 1; format: cell-based; settings: penalties not applied
Source text: as §1
The relative importance of each parameter may be weighted by the screener to select those parameters of greatest interest for a particular application.
as §2
BioMAP Systems are designed to model complex human disease biology in a practical in vitro format. This is achieved by stimulating human primary cells (single cell type or defined mixtures of cell types) such that multiple disease-relevant signaling pathways are simultaneously active. The choice of cell types and stimulations is guided by the knowledge of disease biology and mechanisms. Incorporating appropriate cell types and stimulating signaling pathways relevant to disease states allows association of biological activities detected in BioMAP Systems with disease processes. Drug effects are then recorded by measuring biologically meaningful protein readouts that provide coverage of biological space of interest (e.g., inflammation, tissue remodeling) and allow discrimination between different drug classes tested.
as §3, §4
Readout Parameter Measurements. The levels of readout parameters were measured by ELISA.

Fibroblasts [5] = experiment: BioMAP HDF3CT system (IL-1β + TNF-α + IFN-γ + TGF-β), scoring of readout parameters; format: cell-based, human
Source text: as §1, §3, §4, §5
as §6, with “ratio. All ratios were then log10 transformed. 95% significance prediction envelopes (grey shading in Figures) were calculated for historical controls.” for “ratio.”

[6] = tested on: Peripheral Blood Mononuclear Cells + Umbilical Vein Endothelial Cells; experiment: BioMAP LPS system (TLR4), scoring of readout parameters; format: cell-based, human; settings: LPS (by position); desired change decrease
Source text: as §1, §3, §4, §5
as §6, with “ratio. All ratios were then log10 transformed. 95% significance prediction envelopes (grey shading in Figures) were calculated for historical controls.” for “ratio.”

`COc1cc(-c2ccc(=O)[nH]n2)ccc1OC(F)F` [Zardaverine] gave a PAI-1 score (Fibroblasts [1]) of 1, an HLA-DR score [2] of 0 and a uPAR score [2] of 0. The uPA score [3] was 0, the PAI-1 score [3] was 0 and the EGFR score [3] was 0. It also gave an HLA-DR score [4] of 0, an MMP-1 score [4] of 0 and a uPA score [4] of 0. For the same compound, the PAI-1 score [4] was 0, the EGFR score [4] was 0 and the “Score (Fraction correctly modulated parameters out of 45-58 total)” value (human primary cells) was 0.25. The MMP-1 score (Fibroblasts [5]) was 0 and the TF score [6] was 1.

(R)-(−)-Apomorphine was tested, and the PAI-1 score (Fibroblasts [1]) was 1, the HLA-DR score [2] was 0 and the uPAR score [2] was 0. It also gave a uPA score [3] of 0, a PAI-1 score [3] of 0 and an EGFR score [3] of 0. The HLA-DR score [4] was 1, the MMP-1 score [4] was 0 and the uPA score [4] was 0. The PAI-1 score [4] was 1, the EGFR score [4] was 0 and the “Score (Fraction correctly modulated parameters out of 45-58 total)” value (human primary cells) was 0.31. For the same compound, the MMP-1 score (Fibroblasts [5]) was 0 and the TF score [6] was 0.

Compound Antimycin A has a PAI-1 score (Fibroblasts [1]) of 1, an HLA-DR score [2] of 0 and a uPAR score [2] of 0. The uPA score [3] was 0, the PAI-1 score [3] was 1 and the EGFR score [3] was 0. For the same compound, the HLA-DR score [4] was 0, the MMP-1 score [4] was 0 and the uPA score [4] was 0. For the same compound, the PAI-1 score [4] was 1, the EGFR score [4] was 0 and the “Score (Fraction correctly modulated parameters out of 45-58 total)” value (human primary cells) was 0.45. The MMP-1 score (Fibroblasts [5]) was 0 and the TF score [6] was 1.
